Assay results as given in patent publication US20040176317A1, “Functionalised maltosyl fluoride as glycosyl donor in the chemo-enzymatic preparation of ratio of oligo-or polysaccharides” (priority 2001, published 2004).

Test: Storage stability of the lyophilized fluoride
Assay type: physicochemical
Conditions: for stability of the fluoride: at −18° C. in the lyophilized form
Procedure: This fluoride is stable at −18° C. in the lyophilized form.

first decomposition compound	stability of the fluoride	SMILES
α-maltosyl fluoride	stable	OCC1O[C@H](O[C@@H]2C(CO)O[C@H](F)C(O)C2O)C(O)C(O)[C@@H]1OC1CCCCO1 (stereo partly drawn) [Example 1e, 4-0-tetrahydropyranyl-α-D-glucopyran-osyl-(1→4)-α-D-glucopyranosyl fluoride]
–	stable	OC[C@H]1O[C@H](F)[C@H](O)[C@@H](O)[C@@H]1O[C@H]1O[C@H](CBr)[C@@H](OC2CCCCO2)[C@H](O)[C@H]1O (stereo partly drawn) [Example 4d, 6-bromo-6-deoxy-4-O-tetrahydro-pyranyl-α-D-glucopyranosyl-(1→4)-α-D-glucopyranosyl fluoride]
